The text below walks through data of PMC8538004, “Identification of a Novel Neuropeptide S Receptor Antagonist Scaffold Based on the SHA-68 Core” (Pharmaceuticals, 2021).

For one assay, the target named is T1, human NPSR-107I (Homo sapiens, UniProt Q6W5P4, N107I).
T1 construct: expressed in transfected cells
T1 sequence (Q6W5P4 1-371 N107I): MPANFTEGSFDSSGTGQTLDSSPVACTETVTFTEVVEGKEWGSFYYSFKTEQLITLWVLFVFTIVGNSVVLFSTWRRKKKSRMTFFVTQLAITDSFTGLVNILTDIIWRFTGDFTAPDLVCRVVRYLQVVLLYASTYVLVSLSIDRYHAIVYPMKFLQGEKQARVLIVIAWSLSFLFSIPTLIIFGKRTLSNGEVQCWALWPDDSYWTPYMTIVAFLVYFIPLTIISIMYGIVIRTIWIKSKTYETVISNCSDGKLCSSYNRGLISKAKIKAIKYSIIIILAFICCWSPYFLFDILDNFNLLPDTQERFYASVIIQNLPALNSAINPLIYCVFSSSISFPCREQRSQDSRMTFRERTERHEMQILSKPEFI
Briefly: Ca+2 mobilization assay (apparent Ke against NPS). As to conditions: for NPSR antagonist activity in words: calcium mobilization, SAR discussion; for Kb: Calcium Mobilization, CHO-Gα16-hNPSR-107I cells, shift of NPS EC50; for Loss of antagonist activity compared to SHA: compared with SHA-66 (Ke = 10 nM). The class given is cell-based. The procedure:
A stable cell line overexpressing the human NPSR-107I was created in CHO-Gαq16 cells (RD-HGA16, Molecular Devices), as previously described. Briefly, CHO-Gαq16 cells were transfected with pcDNA 3.1 human NPSR-107I using Lipofectamine reagent. Transfected cells were plated into 10 cm^2 dishes 24 h post-transfection and were selected using Geneticin. After 2 weeks, individual clones were selected, grown to confluence, and screened in a functional 96-well calcium mobilization assay that measured the response to NPS (100 nM final). […] A final working clone was chosen for all subsequent studies based on NPS potency and the calcium mobilization signal window. CHO-Gα16-hNPSR-107I cells were cultured in Ham’s F12 media supplemented with 10% FBS, 100 units/mL penicillin, 100 μg/mL streptomycin, 200 μg/mL hygromycin, and 400 μg/mL geneticin. Media were purchased from HyClone (GE Life Sciences); FBS, penicillin/streptomycin, hygromycin, and geneticin were purchased from Invitrogen (Thermo Scientific). The day before the assay, cells were plated into 96-well black-walled assay plates at 25,000–40,000 cells/well in growth medium without selection antibiotics. Cells were incubated overnight at 37 °C, 5% CO2. The FLIPR Calcium 5 assay kit (Molecular Devices) was used according to the manufacturer’s instructions with minor modifications. Briefly, reconstituted dye was diluted in pre-warmed assay buffer (HBSS, 20 mM HEPES, 2.5 mM probenecid, pH 7.4 at 37 °C). Growth medium was removed, and the cells were gently washed with assay buffer. Calcium 5 dye was added to the cells and the plate was incubated for 45 min at 37 °C, 5% CO2. A single concentration of test compound and 10-point concentration–response curves of NPS (ranging from 100 nM to 1 pM) were prepared at 10× the desired final concentration. Cells were pretreated with the test compound or vehicle in a final concentration of 0.25% BSA/1% DMSO for 15 min at 37 °C. Assay plates were read with a FlexStation II instrument (excitation at 485 nm, detection at 525 nm, Molecular Devices). Calcium-mediated changes in fluorescence were monitored every 1.5 s over a 90 s time period. NPS was added during the read and the maximum kinetic […] (SoftMax [Max-Min], Molecular Devices) in relative fluorescent units (RFU) was measured. Data were fitted to a three-parameter logistic curve to generate EC50 values (GraphPad Prism 6.0). Antagonism was quantified by measuring the ratio of equi-active concentrations of agonist measured in the presence or absence of the antagonist. Apparent Ke values were calculated using the equation Ke = [L]/((EC50^+/EC50^−) − 1), where [L] is the concentration of test compound, EC50^+ is the EC50 of NPS with test compound, and EC50^– is the EC50 of NPS alone. Ke values were considered valid when the EC50^+/EC50^− ratio was at least 4. HBSS and HEPES were purchased from Gibco (Thermo Scientific); probenecid, BSA, and DMSO were purchased from Sigma-Aldrich.
On the technique in general: Calcium assays in cells follow changes in intracellular calcium, usually with a dye or a luminescent sensor.

A further assay concerns NPSR. Set-up: method as in PMID 24964000, PMID 20615693, PMID 18337476, PMID 24171469, PMID 20510609. As to conditions: Figure 1, known NPSR antagonists; cited from earlier work.

On to `CC(C)CC1(c2ccccc2)OC(=O)N2CCN(C(=O)NCc3ccccc3)CC21` (stereo not shown) [Compound 29, N-Benzyl-3-(2-methylpropyl)-1-oxo-3-phenyl-hexahydro-1H-[1,3]oxazolo[3,4-a]piperazine-5-carboxamide], for which the “NPSR antagonist activity in words” value at human NPSR-107I is “completely inactive”.

In the case of `CC(C)CC1(c2ccc3ccccc3c2)OC(=O)C2=C1CN(C(=O)NCc1ccccc1)CC2` (stereo not shown) [Compound 22, N-Benzyl-3-(2-methylpropyl)-3-(naphthalen-2-yl)-1-oxo-1H,3H,4H,5H,6H,7H-furo[3,4-c]pyridine-5-carboxamide], the Kb at human NPSR-107I is 500 nM. On to `CCCCNC(=O)N1CC[C@H]2C(=O)OC(c3ccccc3)(c3ccccc3)[C@@H]2C1` [Compound 6, (3,7)-N-Butyl-1-oxo-3,3-diphenyl-octahydrofuro[3,4-c]pyridine-5-carboxamide], for which the Kb on human NPSR-107I amounted to 260 nM.

`O=C(NCCN1CCCCC1)N1CCN2C(=O)OC(c3ccccc3)(c3ccccc3)[C@H]2C1` [RTI-118]: the Ke with NPSR is 36 nM. As to `CC(C)CC1(c2ccccc2)OC(=O)C2=C1CN(C(=O)NCCN1CCCCC1)CC2` (stereo not shown) [Compound 27, 3-(2-Methylpropyl)-1-oxo-3-phenyl-N-[2-(piperidin-1-yl)Ethyl]-1H,3H,4H,5H,6H,7H-furo[3,4-c]pyridine-5-carboxamide], at human NPSR-107I, the Kb is 566 nM and the “NPSR antagonist activity in words” value is reported as “reduction in potency”. On the same counts, the results for `O=C1OC(c2ccccc2)(c2ccccc2)C2=C1CN(C(=O)NCc1ccccc1)CC2` [Compound 7, N-Benzyl-3-oxo-1,1-diphenyl-1H,3H,4H,5H,6H,7H-furo[3,4-c]pyridine-5-carboxamide] are 1130 nM and “significant loss of potency”. What is called IC50 is the concentration that inhibits the measured activity by half. Regarding `O=C(c1ccccc1N1Cn2c(ccc2-c2ccccc2)C1=O)N1CCCCC1` [C], the IC50 with NPSR was 10 nM. In the case of `CC(C)CC1(c2ccccc2OCc2ccccc2)OC(=O)C2=C1CN(C(=O)NCc1ccccc1)CC2` (stereo not shown) [Compound 24, N-Benzyl-3-[2-(benzyloxy)phenyl]-3-(2-methylpropyl)-1-oxo-1H,3H,4H,5H,6H,7H-furo[3,4-c]pyridine-5-carboxamide], the Kb at human NPSR-107I was determined as 572 nM. The same measure, in the same setting: the figure for `CC(C)CC1(CC(C)C)OC(=O)C2=C1CN(C(=O)NCc1ccccc1)CC2` [Compound 16, N-Benzyl-3,3-bis(2-methylpropyl)-1-oxo-1H,3H,4H,5H,6H,7H-furo[3,4-c]pyridine-5-carboxamide] is 734 nM.

As to `CCCCNC(=O)N1CC[C@H]2C(=O)OC(c3ccccc3)(c3ccccc3)[C@H]2C1` [Compound 4, (3,7)-N-Butyl-1-oxo-3,3-diphenyl-octahydrofuro[3,4-c]pyridine-5-carboxamide], on human NPSR-107I, the “NPSR antagonist activity in words” value is “lacked antagonist activity”. `Cc1c(P(=S)(c2ccccc2)c2ccccc2)n2ccccc2[n+]1C/C=C/c1ccccc1` [D]: the IC50 with NPSR was 9.6 nM. `O=C(NCc1ccccc1)N1CCN2C(=O)OC(c3ccccc3)(c3ccccc3)C2C1` (stereo not shown) [SHA-66]: in the assay on NPSR, the Ke is on record as 10 nM.

On to `CC(C)CC1(c2cccc(Cl)c2)OC(=O)C2=C1CN(C(=O)NCc1ccccc1)CC2` (stereo not shown) [Compound 25, N-Benzyl-3-(3-chlorophenyl)-3-(2-methylpropyl)-1-oxo-1H,3H,4H,5H,6H,7H-furo[3,4-c]pyridine-5-carboxamide], for which, at human NPSR-107I, the Kb came out at 136 nM. As to `CCC(C)(CCN1CCOCC1)N(Cc1cc2ccccc2n(C)c1=O)C(=O)C1CCCCC1` (stereo not shown) [A], in the assay on NPSR, the IC50 was 23 nM. For the molecule `O=C1OC(c2ccccc2)(c2ccccc2)[C@@H]2CN(C(=O)NCc3ccccc3)CC[C@@H]12` [Compound 5, (3,7)-N-Benzyl-1-oxo-3,3-diphenyl-octahydrofuro[3,4-c]pyridine-5-carboxamide], on human NPSR-107I, the Kb stood at 170 nM. Turning to `O=C1OC(Cc2ccccc2)(c2ccccc2)C2=C1CCN(C(=O)NCc1ccccc1)C2` (stereo not shown) [Compound 12, N-3-Dibenzyl-1-oxo-3-phenyl-1H,3H,4H,5H,6H,7H-furo[3,4-c]pyridine-5-carboxamide], the Kb at human NPSR-107I turned out to be 606 nM. In the case of `CCCCC1(c2ccccc2)OC(=O)C2=C1CN(C(=O)NCc1ccccc1)CC2` (stereo not shown) [Compound 11, N-Benzyl-3-butyl-1-oxo-3-phenyl-1H,3H,4H,5H,6H,7H-furo[3,4-c]pyridine-5-carboxamide], the Kb on human NPSR-107I stood at 165 nM. Still for that read-out and setting: the figure for `CC(C)CC1(c2ccccc2)OC(=O)C2=C1CN(C(=O)NCc1ccccc1)CC2` (stereo not shown) [Compound 14, N-Benzyl-3-(2-methylpropyl)-1-oxo-3-phenyl-1H,3H,4H,5H,6H,7H-furo[3,4-c]pyridine-5-carboxamide] is 118 nM; for `O=C1OC2(C3=C1CCN(C(=O)NCc1ccccc1)C3)c1ccccc1CCc1ccccc12` [Compound 9, N-Benzyl-3-oxo-4,5,6,7-tetrahydro-3H-spiro[furo[3,4-c]pyridine-1,2′-tricyclo[9.4.0.0^{3,8}]pentadecane]-1′(11′),3′,5′,7′,12′,14′-hexaene-6-carboxamide] it is 1660 nM. Take `O=C1OC(c2ccccc2)(c2ccccc2)C2=C1CCN(C(=O)NCc1ccccc1)C2` [Compound 1, N-Benzyl-1-oxo-3,3-diphenyl-1H,3H,4H,5H,6H,7H-furo[3,4-c]pyridine-5-carboxamide]: at human NPSR-107I, the Kb came out at 522 nM and the “Loss of antagonist activity compared to SHA” value is given as “roughly 50 fold”. Consider `CCCCNC(=O)N1CCC2=C(C1)C(CC(C)C)(c1ccccc1)OC2=O` (stereo not shown) [Compound 26, N-Butyl-3-(2-methylpropyl)-1-oxo-3-phenyl-1H,3H,4H,5H,6H,7H-furo[3,4-c]pyridine-5-carboxamide], for which, on human NPSR-107I, the Kb worked out at 238 nM and the “NPSR antagonist activity in words” value was “reduction in potency”. With `CC(C)(C)CC1(c2ccccc2)OC(=O)C2=C1CN(C(=O)NCc1ccccc1)CC2` (stereo not shown) [Compound 13, N-Benzyl-3-(2,2-dimethylpropyl)-1-oxo-3-phenyl-1H,3H,4H,5H,6H,7H-furo[3,4-c]pyridine-5-carboxamide], the Kb at human NPSR-107I was 146 nM. For `CCCCNC(=O)N1CCC2=C(C1)C(c1ccccc1)(c1ccccc1)OC2=O` [Compound 2, N-Butyl-1-oxo-3,3-diphenyl-1H,3H,4H,5H,6H,7H-furo[3,4-c]pyridine-5-carboxamide], on human NPSR-107I, the Kb came to 515 nM and the “Loss of antagonist activity compared to SHA” value is recorded as “roughly 50 fold”.

Take `CC(C)CC1(c2ccccc2)OC(=O)C2=C1CN(C(=O)NCc1ccccc1)CC2` (stereo not shown) [Compound 14a, N-Benzyl-3-(2-methylpropyl)-1-oxo-3-phenyl-1H,3H,4H,5H,6H,7H-furo[3,4-c]pyridine-5-carboxamide]: the Kb on human NPSR-107I amounted to 432 nM. Consider `O=C1OC(c2ccccc2)(c2ccccc2)[C@H]2CN(C(=O)NCc3ccccc3)CC[C@@H]12` [Compound 3, (3,7)-N-Benzyl-1-oxo-3,3-diphenyl-octahydrofuro[3,4-c]pyridine-5-carboxamide], for which, at human NPSR-107I, the Kb is 761 nM and the “NPSR antagonist activity in words” value is listed as “lacked antagonist activity”.

Turning to `CC(C)CC1(c2ccccc2O)OC(=O)C2=C1CN(C(=O)NCc1ccccc1)CC2` (stereo not shown) [Compound 23, N-Benzyl-3-(2-hydroxyphenyl)-3-(2-methylpropyl)-1-oxo-1H,3H,4H,5H,6H,7H-furo[3,4-c]pyridine-5-carboxamide], the Kb at human NPSR-107I was 1500 nM.

For `CC(C)CC1(c2ccccc2)OC(=O)C2=C1CN(C(=S)NCCN1CCCCC1)CC2` (stereo not shown) [Compound 28, 3-(2-Methylpropyl)-1-oxo-3-phenyl-N-[2-(piperidin-1-yl)ethyl]-1H,3H,4H,5H,6H,7H-furo[3,4-c]pyridine-5-carbothioamide], on human NPSR-107I, the Kb turned out to be 386 nM and the “NPSR antagonist activity in words” value is reported as “reduction in potency”.
